For the assay, the system named is performance anxiety in the context of public speaking. The assay can be described thus: Open clinical trial: oral doses taken before public speaking, subject self-reports. It counts as in vivo, human. As to conditions: Subject 2, 40 mg propranolol HCl alone. The source says:
Subjects were selected based on their history of experiencing performance anxiety in the context of public speaking. Subjects received oral doses of the present composition, as described below, at various times prior to speaking engagements. The parameters assessed included but were not limited to the following: tremor of voice and hands, urinary and/or fecal urgency, tachycardia, anxiety, and side effects (e.g., dry mouth).

Turning to `CC(C)NCC(O)COc1cccc2ccccc12.Cl` (racemic) [propranolol HCl, (RS)-1-(isopropylamino)-3-(1-naphthyloxy)propan-2-ol], under “ninety minutes prior”, the fecal urgency entry is “did report fecal urgency”; the quality of presentation entry was “less colorful and confident presentation”; the voice tremor result is listed as “no tachycardia or voice tremor”. In addition, for the setting “ninety minutes prior to public speaking”, the tachycardia result is on record as “no tachycardia”.

The record behind these values is patent US20110218215A1, “Compositions and Methods for Treating Social Anxiety” (priority 2010, published 2011).
